According to patent US5298513A, “Substituted basic 2-aminotetralin in pharmaceuticals” (Bayer Aktiengesellschaft, priority 1986, dated 1994):
Counter-ions that a name gives are not always drawn.

Experiments:
5-HT1 receptor = assay: Affinity to the 5-HT1 receptor (receptor binding, calf hippocampus membrane preparations, 3H-serotonin); settings: calf hippocampus membranes, 3H-serotonin radioligand
Description: A.) Affinity to the 5-HT1 Receptor […] The values specified are data which were determined from receptor binding studies using calf hippocampus membrane preparations. 3H-serotonin was used for this purpose as radioactively labelled ligand.

[1] = test system: contraction, caused by serotonin, of the arteria basilaris; assay: Serotonin-agonistic/antagonistic action on the contraction, caused by serotonin, of the arteria basilaris of the dog; assay type: cell-based; settings: for Effect antagonistic: suppression of serotonin-induced contraction after pre-treatment; for Effect agonistic: serotonin-mimetic contraction
From the text: B.) Investigation of the serotonin-agonistic/antagonistic action
To this purpose, the action on the contraction, caused by serotonin, of the arteria basilaris of the dog is investigated [cf. Peroutka et al., Brain Research 259, 327 (1983)].
In this test model, an agonistic action can be detected by the serotonin-mimetic action (contraction).

SMILES	Ki (5-HT1 receptor) [nM]	Effect antagonistic [1]	Effect agonistic [1]
CCCN(CCNC(=O)OCC)C1CCc2cccc(OC)c2C1 (stereo not drawn) [Example 22, 2-[N-(2-Ethoxycarbonylamido-ethyl)-N-propyl]amino-8-methoxy-1,2,3,4-tetrahydronaphthalene hydrochloride]	3	0	–
CCCN(CCCCN1C(=O)c2ccccc2S1(=O)=O)C1CCc2cccc(OC)c2C1.Cl (stereo not drawn) [Example 34, 2-{4-[N-(8-Methoxy-1,2,3,4-tetrahydro-2-naphthyl)-N-propyl-amino]butyl}-1,2-benzisothiazol-3(2H)-one 1,1-dioxide hydrochloride]	1	–	0
CCCN(CCO)C1CCc2cccc(OC)c2C1 (stereo not drawn) [Example 42, 2-[N-(2-Hydroxyethyl)-N-propyl]amino-8-methoxy-1,2,3,4-tetrahydronaphthalene]	4	–	–
CCCN(CCC)C1CCc2cccc(O)c2C1 (stereo not drawn) [R^1 = H, R^2 = nC3 H7, R^3 = nC3 H7, reference compound]	–	0	–

Continued by falling Ki (5-HT1 receptor), values first:

Ki (5-HT1 receptor) [nM]	SMILES	Effect antagonistic [1]	Effect agonistic [1]
11	CCCN(CCN(CC)CC)C1CCc2cccc(OC)c2C1 (stereo not drawn) [Example 20, 2-[N-(2-Diethylaminoethyl)-N-propyl]amino-8-methoxy-1,2,3,4-tetrahydronaphthalene dihydrochloride]	–	–
4	CCCN(CCN1CCCCS1(=O)=O)C1CCc2cccc(OC)c2C1 (stereo not drawn) [Example 58, 2-[2-N-Propyl-N-(8-methoxy-1,2,3,4-tetrahydro-2-naphthyl)-amino]ethyl-perhydro-1,2-thiazine 1,1-dioxide hydrochloride]	–	–
4	CCCN(CCCNC(=O)c1cccnc1)C1CCc2cccc(OC)c2C1 (stereo not drawn) [Example 62, dihydrochloride]	–	–
2	CCCN(CC#N)C1CCc2cccc(OC)c2C1 (stereo not drawn) [Example 26, 2-(N-Cyanomethyl-N-propyl)amino-8-methoxy-1,2,3,4-tetrahydronaphthalene hydrochloride]	–	–
1	CCCN(CCNS(=O)(=O)c1ccc(C)cc1)C1CCc2cccc(OC)c2C1 (stereo not drawn) [Example 45, 8-Methoxy-2-{N-[2-(4-toluene-sulphonamido)ethyl]-N-propyl}amino-1,2,3,4-tetrahydronaphthalene hydrochloride]	–	0
